# Laboratory results published in patent US8268827B2, “Pyridazinone derivatives as PARP inhibitors” (Istituto di Ricerche di Biologia Molecolare P. Angeletti …, priority 2007, dated 2012).
# Counter-ions that a name gives are not always drawn.
# Tested on: BRCA-1 silenced HeLa cells (HeLa shBRCA1-GFP)
# Test: Proliferation assay in BRCA-1 silenced HeLa cells
# Type: cell-based
# Conditions: Homo sapiens; BRCA1 silenced HeLa cells, 168 hours; read-out: CC50 in the BRCA1 silenced HeLa cells
# Description: Proliferation Assay in BRCA-1 Silenced HeLa Cells
# Compounds of the present invention were also tested in an anti-proliferative assay in matched pair BRCA1 wt and BRCA1-(shRNA) HeLa cells.
# The assay is based on the ability of living cells to convert a redox dye (resazurin) into a fluorescent end product (resofurin). The amount of resofurin produced is directly proportional to the cell number.
# HeLa shBRCA1-GFP—These are HeLa cells transduced at an MOI of 100 with a Lentivirus containing a shRNA against BRCA-1 and an expression cassette for GFP. BRCA-1 silencing is more than 80% as assessed by Taqman analysis and the cells stably express GFP.
# HeLa THM-GFP—These are HeLa cells transduced at an MOI of 100 with a control vector not expressing any shRNA.
# • Seed 300 cell/well in 96 wells viewplate black in 90 ul culture Medium*: • Incubate 4 hours at 37° C., 5% CO2 • Add 10 ul/well of 10× compound (5% DMSO in H2O) • Incubate for 168 hours at 37° C., 5% CO2 • Add 10 ul of Celltiter Blue solution (Promega, G8081) pre-diluted 1:1 in PBS1× • Incubate the mixture for 45′ at 37° C., 5% CO2 • Incubate 15′ at RT in the dark • Read plate at fluorimeter ex: 550 nm; em: 590 nm *Culture Medium: DMEM (GIBCO, 41966-029), 10% FCS (GIBCO, 10106-169), 0.1 mg/ml Penicillin-Streptomycin (GIBCO, 15140-114), 2 mM L-Glutamine (GIBCO, 3042190)
row,Structure (SMILES),CC50 [nM]
1,"Cc1c(Cc2ccc(F)c(C(=O)N3CCN(C4CCOC4)C(=O)C3)c2)n[nH]c(=O)c1C (centres unmarked) [Example 69, 6-(4-Fluoro-3-{[3-oxo-4-(tetrahydrofuran-3-yl)piperazin-1-yl]carbonyl}benzyl)-4,5-dimethyl-3-oxo-2,3-dihydropyridazin-1-ium trifluoroacetate]",50 to 500
2,"CCN1C(=O)CN(C(=O)c2cc(Cc3n[nH]c(=O)c(C(F)(F)F)c3C)ccc2F)C[C@H]1C [Example 156, 6-(3-{[(3R)-4-ethyl-3-methyl-5-oxopiperazin-1-yl]carbonyl}-4-fluorobenzyl)-5-methyl-4-(trifluoromethyl)pyridazin-3(2H)-one]",< 50
3,"Cc1c(Cc2ccc(F)c(C(=O)N3CCN(c4cccc(Cl)c4)C(=O)C3)c2)n[nH]c(=O)c1C [Example 9, 6-(3-{[4-(3-Chlorophenyl)-3-oxopiperazin-1-yl]carbonyl}-4-fluorobenzyl)-4,5-dimethyl-3-oxo-2,3-dihydropyridazin-1-ium trifluoroacetate]",< 50
4,"Cc1c(Cc2ccc(F)c(C(=O)N3CCN([C@@H]4CCCOC4)C(=O)C3)c2)n[nH]c(=O)c1C [Example 104, 6-[4-fluoro-3-({3-oxo-4-[(3R)-tetrahydro-2H-pyran-3-yl]piperazin-1-yl}carbonyl)benzyl]-4,5-dimethylpyridazin-3(2H)-one]",< 50
5,"Cc1c(Cc2ccc(F)c(C(=O)N3CCN(C4COC5(CCCC5)C4)C(=O)C3)c2)n[nH]c(=O)c1C (centres unmarked) [Example 106, 6-(4-Fluoro-3-{[4-(1-oxaspiro[4.4]non-3-yl)-3-oxopiperazin-1-yl]carbonyl}benzyl)-4,5-dimethylpyridazin-3(2H)-one trifluoroacetate]",50 to 500
6,"Cc1c(Cc2ccc(F)c(C(=O)N3CC(=O)N([C@@H]4CCOC4)[C@@H](C)C3)c2)n[nH]c(=O)c1C [Example 157, 6-[4-fluoro-3-({(3S)-3-methyl-5-oxo-4-[(3R)-tetrahydrofuran-3-yl]piperazin-1-yl}carbonyl)benzyl]-4,5-dimethylpyridazin-3(2H)-one]",50 to 500
7,"Cc1c(Cc2ccc(F)c(C(=O)N3CCN(c4cccs4)C(=O)C3)c2)n[nH]c(=O)c1C [Example 44, 3-(4-Fluoro-3-{[3-oxo-4-(2-thienyl)piperazin-1-yl]carbonyl}benzyl)-4,5-dimethyl-6-oxo-1,6-dihydropyridazin-1-ium trifluoroacetate]",< 50
8,"Cc1c(Cc2ccc(F)c(C(=O)N3CC(=O)N(C4CCC(F)(F)CC4)C(C)C3)c2)n[nH]c(=O)c1C (centres unmarked) [Example 126, 6-(3-{[4-(4,4-Difluorocyclohexyl)-3-methyl-5-oxopiperazin-1-yl]carbonyl}-4-fluorobenzyl)-4,5-dimethylpyridazin-3(2H)-one trifluoroacetate]",< 50
9,"Cc1c(Cc2ccc(F)c(C(=O)N3CC(=O)N(c4cc(F)cc(F)c4)[C@H](C)C3)c2)n[nH]c(=O)c1C [Example 193, 6-(3-{[(3R)-4-(3,5-Difluorophenyl)-3-methyl-5-oxopiperazin-1-yl]carbonyl}-4-fluorobenzyl)-4,5-dimethylpyridazin-3(2H)-one]",< 50
10,"Cc1c(Cc2ccc(F)c(C(=O)N3CCN(c4ccc(F)cc4Cl)C(=O)C3)c2)n[nH]c(=O)c1C [Example 16, 6-(3-{[4-(2-Chloro-4-fluorophenyl)-3-oxopiperazin-1-yl]carbonyl}-4-fluorobenzyl)-4,5-dimethyl-3-oxo-2,3-dihydropyridazin-1-ium trifluoroacetate]",50 to 500
11,"Cc1c(Cc2ccc(F)c(C(=O)N3CCN(Cc4ccc(F)cc4)C(=O)C3)c2)n[nH]c(=O)c1C [Example 8, 3-(4-Fluoro-3-{[4-(4-fluorobenzyl)-3-oxopiperazin-1-yl]carbonyl}benzyl)-4,5-dimethyl-6-oxo-1,6-dihydropyridazin-1-ium trifluoroacetate]",< 5000
12,"CCc1c(C)c(Cc2ccc(F)c(C(=O)N3CCN(C4CCCCC4)C(=O)C3)c2)n[nH]c1=O [Example 29, 3-{3-[(4-Cyclohexyl-3-oxopiperazin-1-yl)carbonyl]-4-fluorobenzyl}-5-ethyl-4-methyl-6-oxo-1,6-dihydropyridazin-1-ium trifluoroacetate]",< 50
13,"Cc1c(Cc2ccc(F)c(C(=O)N3CCN(c4cncnc4)C(=O)C3)c2)n[nH]c(=O)c1C [Example 64, 3-{4-Fluoro-3-[(3-oxo-4-pyrimidin-5-ylpiperazin-1-yl)carbonyl]benzyl}-4,5-dimethyl-6-oxo-1,6-dihydropyridazin-1-ium trifluoroacetate]",< 5000
14,"Cc1c(Cc2ccc(F)c(C(=O)N3CCN([C@H](C)C(F)(F)F)C(=O)C3)c2)n[nH]c(=O)c1C [Example 200, 6-[4-Fluoro-3-({3-oxo-4-[(1R)-2,2,2-trifluoro-1-methylethyl]piperazin-1-yl}carbonyl)benzyl]-4,5-dimethylpyridazin-3(2H)-one]",< 50
15,"Cc1c(Cc2ccc(F)c(C(=O)N3CCN(c4csc5ccccc45)C(=O)C3)c2)n[nH]c(=O)c1C [Example 62, 3-(3-{[4-(1-Benzothien-3-yl)-3-oxopiperazin-1-yl]carbonyl}-4-fluorobenzyl)-4,5-dimethyl-6-oxo-1,6-dihydropyridazin-1-ium trifluoroacetate]",50 to 500
16,"Cc1c(Cc2ccc(F)c(C(=O)N3CCN(c4cc(Cl)cc(Cl)c4)C(=O)C3)c2)n[nH]c(=O)c1C [Example 42, 3-(3-{[4-(3,5-Dichlorophenyl)-3-oxopiperazin-1-yl]carbonyl}-4-fluorobenzyl)-4,5-dimethyl-6-oxo-1,6-dihydropyridazin-1-ium trifluoroacetate]",< 50
17,"CCc1cc(Cc2ccc(F)c(C(=O)N3CCN([C@@H]4CCc5ccccc5C4)C(=O)C3)c2)n[nH]c1=O [Example 160, 4-ethyl-6-[4-fluoro-3-({3-oxo-4-[(2R)-1,2,3,4-tetrahydronaphthalen-2-yl]piperazin-1-yl}carbonyl)benzyl]pyridazin-3(2H)-one]",50 to 500
18,"Cc1c(Cc2ccc(F)c(C(=O)N3CC(=O)N(c4ccc(Cl)cc4)[C@H](C)C3)c2)n[nH]c(=O)c1C [Example 194, 6-(3-{[(3R)-4-(4-Chlorophenyl)-3-methyl-5-oxopiperazin-1-yl]carbonyl}-4-fluorobenzyl)-4,5-dimethylpyridazin-3(2H)-one]",< 50
19,"Cc1c(Cc2ccc(F)c(C(=O)N3CC(=O)N(c4ccc(C#N)cc4)[C@H](C)C3)c2)n[nH]c(=O)c1C [Example 189, 4-((2R)-4-{5-[(4,5-Dimethyl-6-oxo-1,6-dihydropyridazin-3-yl)methyl]-2-fluorobenzoyl}-2-methyl-6-oxopiperazin-1-yl)benzonitrile]",< 50
20,"Cc1c(Cc2ccc(F)c(C(=O)N3CC(=O)N(c4ccc(F)c(F)c4)[C@H](C)C3)c2)n[nH]c(=O)c1C [Example 203, 6-(3-{[(3R)-4-(3,4-Difluorophenyl)-3-methyl-5-oxopiperazin-1-yl]carbonyl}-4-fluorobenzyl)-4,5-dimethylpyridazin-3(2H)-one]",< 50
21,"CC[C@H](C)N1CCN(C(=O)c2cc(Cc3n[nH]c(=O)c(C)c3C)ccc2F)CC1=O [Example 161, 6-[4-Fluoro-3-({4-[(1S)-1-methylpropyl]-3-oxopiperazin-1-yl}carbonyl)benzyl]-4,5-dimethylpyridazin-3(2H)-one]",< 50
22,"O=C(c1cc(Cc2cc(C(F)(F)F)c(=O)[nH]n2)ccc1F)N1CCN([C@H]2CCCOC2)C(=O)C1 [Example 153, 6-[4-fluoro-3-({3-oxo-4-[(3S)-tetrahydro-2H-pyran-3-yl]piperazin-1-yl}carbonyl)benzyl]-4-(trifluoromethyl)pyridazin-3(2H)-one]",50 to 500
23,"CCC1CN(C(=O)c2cc(Cc3n[nH]c(=O)c(C)c3C)ccc2F)CC(=O)N1C1CCCCC1 (centres unmarked) [Example 184, 6-{3-[(4-Cyclohexyl-3-ethyl-5-oxopiperazin-1-yl)carbonyl]-4-fluorobenzyl}-4,5-dimethylpyridazin-3(2H)-one]",50 to 500
24,"Cc1nc(C)c(N2CCN(C(=O)c3cc(Cc4n[nH]c(=O)c(C)c4C)ccc3F)CC2=O)s1 [Example 117, 3-(3-{[4-(2,4-Dimethyl-1,3-thiazol-5-yl)-3-oxopiperazin-1-yl]carbonyl}-4-fluorobenzyl)-4,5-dimethyl-6-oxo-1,6-dihydropyridazin-1-ium trifluoroacetate]",50 to 500
25,"Cc1c(Cc2ccc(F)c(C(=O)N3CC(=O)N(c4ccc(C#N)c(F)c4)[C@@H](C)C3)c2)n[nH]c(=O)c1C [Example 174, 4-((2S)-4-{5-[(4,5-Dimethyl-6-oxo-1,6-dihydropyridazin-3-yl)methyl]-2-fluorobenzoyl}-2-methyl-6-oxopiperazin-1-yl)-2-fluorobenzonitrile]",< 50
26,"Cc1c(Cc2ccc(F)c(C(=O)N3CCN(c4ccc(F)c(F)c4)C(=O)C3)c2)n[nH]c(=O)c1C [Example 11, 6-(3-{[4-(3,4-Difluorophenyl)-3-oxopiperazin-1-yl]carbonyl}-4-fluorobenzyl)-4,5-dimethyl-3-oxo-2,3-dihydropyridazin-1-ium trifluoroacetate]",< 50
